Changes are numbered by the printed parent chain. Blank lines part the entries; values can stand above or below the molecule they belong to. Non-standard residues stand in square brackets, D forms with d. Residues, ends and D or L forms follow the SMILES beside them. No end group written: not given here. pS = N[C@@H](COP(=O)(O)O)C(=O)O
Tests used:
[1] = biological target: T1, PKCιKD-2P (primed human PKC-iota kinase domain) (Homo sapiens, UniProt P41743, C595S); test: In vitro kinase assay (ADP Quest), peptide as substrate, Michaelis-Menten kinetics; type: biochemical; conditions: for increase of apparent kcat relative to wild-type Par3CR3: phosphorylation by PKCιKD-2P, Figures 5A and 5C
T1 construct: encoding residues 248–596 (GenBank: NM_002740.5); GST (followed by a 3C protease site) (N, cleaved yes); made in house; host or cells: Hi5 insect cells, baculovirus, co-infected with a PDK-1 virus
T1 sequence (P41743 248-596 C595S): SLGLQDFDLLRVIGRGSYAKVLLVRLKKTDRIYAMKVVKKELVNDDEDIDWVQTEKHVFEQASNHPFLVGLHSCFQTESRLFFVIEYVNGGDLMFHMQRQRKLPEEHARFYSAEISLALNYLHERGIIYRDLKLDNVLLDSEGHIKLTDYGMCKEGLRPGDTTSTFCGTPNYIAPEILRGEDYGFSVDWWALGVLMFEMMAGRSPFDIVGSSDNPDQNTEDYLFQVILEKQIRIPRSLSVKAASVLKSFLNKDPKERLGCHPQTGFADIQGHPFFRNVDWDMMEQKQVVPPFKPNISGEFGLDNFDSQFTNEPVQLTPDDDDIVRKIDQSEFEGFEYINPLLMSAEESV
Description: (§1) The ADP Quest kit (DiscoveRx) was used to determine the kcat app and KM app values for ATP against the PKCιKD-1P and PKCιKD-2P using a series of synthetic peptide substrates as described by [Kjaer et al. (2013)]. The reactions were measured every 2 min for 30 min in a 384-well plate using a Safire^2 plate reader (Tecan). The kinetic constants were determined by fitting the data to the Michaelis-Menten equation. Data are represented as mean ± SEM. Fluorescence anisotropy assays were performed to determine the KD for each peptide labeled with a fluorescein tag following standard protocols using a Safire^2 plate reader (Tecan). The anisotropy values were normalized and the KD was determined using non-linear regression. All experiments were performed in triplicate and for at least three independent protein preparations.
The ADP Quest kit (DiscoveRx) was used to determine the kcat app and Km app values for ATP against the PKCι KD-1P and PKCι KD-2P. The assay uses a coupled reaction to convert ADP to a product that has a fluorescence excitation at 530 nm and emission at 590 nm. Several synthetic peptide substrates were used including a model peptide […]
(§2) ([…]) derived from a PKCε pseudo-substrate sequence with an alanine-serine change. We found this peptide to be an efficient substrate peptide for aPKC isozymes. Peptides from human Par3CR3 (residues 816-835) and F-X-R short […]
peptide ([…]) related to the Nishikawa and co-workers consensus were also used in the study (Nishikawa et al., 1997). For the kcat app and Km app reactions, the ATP concentration ranged from 0-200 µM, while the synthetic peptide substrates were kept constant at 200 µM to avoid product inhibition. The reactions were measured every two minutes for 30 minutes in a 384-well plate using a Safire 2 plate reader (Tecan). The kinetic constants were determined by fitting the data to Michaelis–Menten equation using the graphics program Prism (GraphPad Prism, version 5.0d, GraphPad Software). […]

[2] = biological target: T1, PKCιKD-2P (primed human PKC-iota kinase domain); test: Fluorescence anisotropy binding assay with fluorescein-labelled peptides; conditions: for Kd: Figure S4D, fluorescein-labelled εPSS peptides
Description: as §1, with “preparations. […]” for “preparations.”
Several synthetic peptide substrates were used including a model peptide […]
as §2
peptide ([…]) related to the Nishikawa and co-workers consensus were also used in the study (Nishikawa et al., 1997). […]
The kinetic constants were determined by fitting the data to […]
Fluorescence anisotropy binding assays
Fluorescence anisotropy assays were performed to determine the Kd for each peptide following a previously described protocol (Guettler et al., 2008). Binding assays were performed in 20 mM Tris pH 7.5, 50 mM NaCl, 5% glycerol and 0.5 mM TCEP. The reaction mixtures contained fluorescein labelled peptides at a constant 50 nM concentration, while the protein concentration ranged from 0-200 µM. The 20 µl reactions were carried out in 384-well plate and measured after 30 minutes on the Safire2 plate reader (Tecan) with the excitation at 470 nm and emission at 525 nm. […]

[3] = biological target: T2, human PKC-iota kinase domain, primed active form (PKCιKD-2P) (human, UniProt P41743 248-596, phosphothreonine at 412 and 564 (pT412, pT564)); test: FP
T2 chain: T1 sequence (P41743 248-596 C595S) with S348C

[4] = biological target: T3, human PKC-iota kinase domain, primed active form (PKCιKD-2P) (human, UniProt P41743 248-596, phosphothreonine at 412 and 564 (pT412, pT564)); test: cell-based or functional assay
T3 sequence (looked up): T1 sequence (P41743 248-596 C595S) with S348C

interaction with / affinity for PKCιKD-2P (in words) [2]: two orders of magnitude lower
Molecule: CSCC[C@H](NC(=O)[C@H](COP(=O)(O)O)NC(=O)[C@H](CCC(N)=O)NC(=O)[C@H](CCCNC(=N)N)NC(=O)CNC(=O)[C@H](Cc1ccccc1)NC(=O)CNC(=O)[C@H](CCC(=O)O)NC(=O)[C@H](CCCNC(=N)N)NC(=O)[C@H](CCC(N)=O)NC(=O)[C@H](Cc1ccccc1)NC(=O)[C@H](C)NC(=O)[C@@H](N)CC(C)C)C(=O)N[C@@H](CO)C(=O)N[C@@H](CCC(=O)O)C(=O)N[C@@H](CCCCN)C(=O)N[C@@H](CCCNC(=N)N)C(=O)N[C@H](C(=O)N[C@@H](CCCCN)C(=O)N[C@@H](CCC(N)=O)C(=O)O)[C@@H](C)O [Par-3CR3pS827] (H-LAFQREGFGRQ[pS]MSEKRTKQ-OH; N-terminus and C-terminus assumed)

Kd [2]: 16.4 ± 3.5 µM
Molecule: CSCC[C@H](NC(=O)[C@H](CCCNC(=N)N)NC(=O)[C@@H](N)CCC(=O)O)C(=O)N[C@@H](CCCNC(=N)N)C(=O)N1CCC[C@H]1C(=O)N[C@@H](CCCNC(=N)N)C(=O)N[C@@H](CCCCN)C(=O)N[C@@H](CCCNC(=N)N)C(=O)N[C@@H](CCC(N)=O)C(=O)NCC(=O)N[C@@H](CO)C(=O)N[C@H](C(=O)N[C@@H](CCCNC(=N)N)C(=O)N[C@@H](CCCNC(=N)N)C(=O)N[C@@H](CCCNC(=N)N)C(=O)N[C@@H](Cc1ccccc1)C(=O)N[C@@H](Cc1c[nH]cn1)C(=O)N[C@@H](CCC(N)=O)C(=O)N[C@H](C(=O)N[C@@H](CC(N)=O)C(=O)O)C(C)C)C(C)C [ε +5Fpss] (H-ERMRPRKRQGSVRRRFHQVN-OH)

Kd [2]: 1.8 ± 0.1 µM
Molecule: CSCC[C@H](NC(=O)[C@H](CCCNC(=N)N)NC(=O)[C@@H](N)CCC(=O)O)C(=O)N[C@@H](CCCNC(=N)N)C(=O)N1CCC[C@H]1C(=O)N[C@@H](Cc1ccccc1)C(=O)N[C@@H](CCCCN)C(=O)N[C@@H](CCCNC(=N)N)C(=O)N[C@@H](CCC(N)=O)C(=O)NCC(=O)N[C@@H](CO)C(=O)N[C@H](C(=O)N[C@@H](CCCNC(=N)N)C(=O)N[C@@H](CCCNC(=N)N)C(=O)N[C@@H](CCCNC(=N)N)C(=O)N[C@H](C(=O)N[C@@H](Cc1c[nH]cn1)C(=O)N[C@@H](CCC(N)=O)C(=O)N[C@H](C(=O)N[C@@H](CC(N)=O)C(=O)O)C(C)C)C(C)C)C(C)C [ε -5Fpss] (H-ERMRPFKRQGSVRRRVHQVN-OH)

Kd [2]: 13.3 ± 2.1 µM
Molecule: CSCC[C@H](NC(=O)[C@H](CCCNC(=N)N)NC(=O)[C@@H](N)CCC(=O)O)C(=O)N[C@@H](CCCNC(=N)N)C(=O)N1CCC[C@H]1C(=O)N[C@@H](CCCNC(=N)N)C(=O)N[C@@H](CCCCN)C(=O)N[C@@H](CCCNC(=N)N)C(=O)N[C@@H](CCC(N)=O)C(=O)NCC(=O)N[C@@H](CO)C(=O)N[C@H](C(=O)N[C@@H](CCCNC(=N)N)C(=O)N[C@@H](CCCNC(=N)N)C(=O)N[C@@H](CCCNC(=N)N)C(=O)N[C@H](C(=O)N[C@@H](Cc1c[nH]cn1)C(=O)N[C@@H](CCC(N)=O)C(=O)N[C@H](C(=O)N[C@@H](CC(N)=O)C(=O)O)C(C)C)C(C)C)C(C)C [εpss, reference compound] (H-ERMRPRKRQGSVRRRVHQVN-OH)

Kd [3]: 115 µM
B1: phospho-S827 Par3 peptide (PKCι reaction product) (peptide)
peptide: LAFQREGFGRQ[pS]MSEKRTK
modifications: also: fluorescein label (position not given here)

Kd [3]: 424 µM
fold increase of the apparent kcat of Par3CR3 phosphorylation by PKCιKD-2P, in vitro kinase assay [4]: 18 fold
B2: Par3CR3 A-A-T mutant peptide (K-R-T to A-A-T, site 3 inhibitory arm) (peptide)
peptide: LAFQREGFGRQSMSEAATK
modifications: also: fluorescein label (position not given here)

Kd [3]: 228 µM
fold increase of the apparent kcat of Par3CR3 phosphorylation by PKCιKD-2P, in vitro kinase assay [4]: 57 fold
B3: Par3CR3 A-X-A mutant peptide (F-Q-R to A-Q-A, site 1 affinity arm) (peptide)
peptide: LAAQAEGFGRQSMSEKRTK
modifications: also: fluorescein label (position not given here)

The next lines start with the molecule.

Molecule: CSCC[C@H](NC(=O)[C@H](CO)NC(=O)[C@H](CCC(N)=O)NC(=O)[C@H](CCCNC(=N)N)NC(=O)CNC(=O)[C@H](Cc1ccccc1)NC(=O)CNC(=O)[C@H](CCC(=O)O)NC(=O)[C@H](CCCNC(=N)N)NC(=O)[C@H](CCC(N)=O)NC(=O)[C@H](Cc1ccccc1)NC(=O)[C@H](C)NC(=O)[C@@H](N)CC(C)C)C(=O)N[C@@H](CO)C(=O)N[C@@H](CCC(=O)O)C(=O)N[C@@H](C)C(=O)N[C@@H](C)C(=O)N[C@H](C(=O)N[C@@H](CCCCN)C(=O)N[C@@H](CCC(N)=O)C(=O)O)[C@@H](C)O [Par-3CR3AAT] (H-LAFQREGFGRQSMSEAATKQ-OH; N-terminus and C-terminus assumed)
increase of apparent kcat relative to wild-type Par3CR3 [1]: 18 fold

Molecule: CSCC[C@H](NC(=O)[C@H](CO)NC(=O)[C@H](CCC(N)=O)NC(=O)[C@H](CCCNC(=N)N)NC(=O)CNC(=O)[C@H](Cc1ccccc1)NC(=O)CNC(=O)[C@H](CCC(=O)O)NC(=O)[C@H](C)NC(=O)[C@H](CCC(N)=O)NC(=O)[C@H](C)NC(=O)[C@H](C)NC(=O)[C@@H](N)CC(C)C)C(=O)N[C@@H](CO)C(=O)N[C@@H](CCC(=O)O)C(=O)N[C@@H](CCCCN)C(=O)N[C@@H](CCCNC(=N)N)C(=O)N[C@H](C(=O)N[C@@H](CCCCN)C(=O)N[C@@H](CCC(N)=O)C(=O)O)[C@@H](C)O [Par-3CR3AXA] (H-LAAQAEGFGRQSMSEKRTKQ-OH; N-terminus and C-terminus assumed)
increase of apparent kcat relative to wild-type Par3CR3 [1]: 57 fold

Molecule: CSCC[C@H](NC(=O)[C@H](C)NC(=O)[C@H](CCC(N)=O)NC(=O)[C@H](CCCNC(=N)N)NC(=O)CNC(=O)[C@H](Cc1ccccc1)NC(=O)CNC(=O)[C@H](CCC(=O)O)NC(=O)[C@H](CCCNC(=N)N)NC(=O)[C@H](CCC(N)=O)NC(=O)[C@H](Cc1ccccc1)NC(=O)[C@H](C)NC(=O)[C@@H](N)CC(C)C)C(=O)N[C@@H](CO)C(=O)N[C@@H](CCC(=O)O)C(=O)N[C@@H](CCCCN)C(=O)N[C@@H](CCCNC(=N)N)C(=O)N[C@H](C(=O)N[C@@H](CCCCN)C(=O)N[C@@H](CCC(N)=O)C(=O)O)[C@@H](C)O [S827A] (H-LAFQREGFGRQAMSEKRTKQ-OH; N-terminus and C-terminus assumed)
kcat app ([1]; Figure 5A, ADP Quest, read every 2 min for 30 min, Michaelis-Menten fit, mean ± SEM): 0.0167 ± 0.0017 s⁻¹

Molecule: A-X-A + A-A-T: Par3CR3 combining both site 1 and site 3 mutations (LAAQAEGFGRQSMSEAATK)
interaction with / affinity for PKCιKD-2P (in words) [2]: no measurable interaction
phosphorylation as substrate by PKCι in vitro (in words) ([1]; in vitro kinase assay): not detectably phosphorylated

Source: PMC4998004, “aPKC Inhibition by Par3 CR3 Flanking Regions Controls Substrate Access and Underpins Apical-Junctional Polarization” (Developmental Cell, 2016)
